The source of these data is US20180267067A1, “METHODS FOR BIOANALYSIS OF 6-DIAZO-5-OXO-L-NORLEUCINE (DON) AND OTHER GLUTAMINE ANTAGONISTS” (THE JOHNS HOPKINS UNIVERSITY, priority 2015, published 2018).

Data set [1] in a line: DON plasma and brain concentrations in mice after i.p. administration (LC-MS after acidified butanol derivatization). It is filed as in vivo. Particulars: for Kp at 1 h: brain/plasma. As for the experimental part:
(§1) FIG. 5A and FIG. 5B show: (FIG. 5A) DON concentrations in plasma over time. Mice were administered DON at 1.6 mg/kg (i.v.). Mice were euthanized and blood was collected transcardially 0.25, 0.5, 1, 2, 4 and 6 hours after dosing. Blood was centrifuged, plasma collected and stored at −80° C. N-butanol containing 3N HCl (250 μL) was added directly to samples (50 μL) and centrifuged at 16,000×g for 5 min to precipitate proteins. An aliquot (200 μL) of the supernatant was incubated at 60° C. for 30 min. After derivatization, the samples were analyzed by LC-MS (methods); and (FIG. 5B) DON plasma to brain ratio analysis. Mice were administered DON (0.6 mg/kg, i.p.) and blood and brain were collected 1 h after DON administration. Plasma was isolated from blood samples as described in (FIG. 5A). Brains were collected following perfusion with PBS and frozen immediately at −80° C. Before bioanalysis, brains were weighed and n-butanol containing 3N HCl was added to each sample (5 μL/mg tissue) and homogenized using a pestle. Resulting homogenates were centrifuged at 16,000×g for 5 min to precipitate proteins and analyzed the same way as the plasma samples. All determinations in both (A) and (B) were carried out in triplicate. Error bars correspond to ±S.E.M; and
When using plasma, DON was derivatized only using 3N HCl plus n-butanol and subsequently analyzed by LC-MS. To generate the standard curve to determine DON concentrations in plasma, DON (10 μL of 1 mM water solution) was added to untreated mouse plasma (90 μL) in a low retention micro-centrifuge tube. Standard solutions (100 μL) were then prepared by serial dilution to generate concentrations from 10 nM to 100 μM at half-log intervals. Prior to extraction, frozen plasma samples were thawed on ice. N-butanol (250 μL) containing 3N HCl was added directly to standards (50 μL), vortexed and centrifuged at 16,000×g for 5 minutes in low retention micro-centrifuge tubes to precipitate proteins. […] After derivatization, an aliquot of the reaction mixture (2 μL) was injected and analyzed by LC-MS as stated above. The area under the curve (AUC) representing the signal intensity of the extracted ion (m/z 218.0942) for each sample was used to generate the standard curve using Agilent Mass Hunter Quantitative analysis software. […] DON concentrations in plasma samples were determined by interpolation using the standard curve.
When using brain, DON was derivatized only using 3N HCl plus n-butanol and subsequently analyzed by LC-MS. […] After derivatization, an aliquot of the reaction mixture (2 μL) was injected and analyzed by LC-MS as stated above. […] DON concentrations in brain samples were determined by interpolation using the standard curve. […]

Data set [2] in a line: DON concentration in plasma from DON-treated mice, direct versus derivatization protocols. Particulars: male, C57BL/6, mouse, in vivo, iv, 1.6 mg/kg, 1.6 mg/kg i.v., 15 min after administration, N=3, ±S.D. The protocol: Mouse plasma samples were obtained 15 min after DON administration (1.6 mg/kg, i.v.). For LC-MS bioanalysis of underivatized DON from plasma, DON was extracted from plasma with methanol, dried and resuspended in H2O and separated in a Hypercarb column. For LC-MS bioanalysis of derivatized DON from plasma, DON was derivatized in butanol containing 3N HCl for 30 min at 60° C., dried, reconstituted in 30% acetonitrile and separated by RPC. Analytes eluting after each chromatographic separation were detected by QTOF MS. N=3 for each treatment. Error bars correspond to ±S.D.
Methanol (250 μL) was added to plasma samples containing DON (50 μL); samples were centrifuged for 5 min at 16,000×g to precipitate proteins. […] Analytes were detected with an Agilent 6520 QTOF in MS mode as when analyzing derivatized DON by LC-MS.
(§2) When using plasma, DON was derivatized only using 3N HCl plus n-butanol and subsequently analyzed by LC-MS. […] After derivatization, an aliquot of the reaction mixture (2 μL) was injected and analyzed by LC-MS as stated above. The area under the curve (AUC) representing the signal intensity of the extracted ion (m/z 218.0942) for each sample was used to generate the standard curve using Agilent Mass Hunter Quantitative analysis software. […] DON concentrations in plasma samples were determined by interpolation using the standard curve. […]

Data set [3] is described as follows: DON plasma pharmacokinetics in mice after i.v. administration (LC-MS after acidified butanol derivatization). The format is in vivo. Particulars: male, C57BL/6, mouse, iv, 1.6 mg/kg i.v. As for the experimental part: as §1, with “Plasma was isolated from blood samples as described in (FIG. 5A). Brains were collected following perfusion with PBS and frozen immediately at −80° C. Before bioanalysis, brains were weighed and n-butanol containing 3N HCl was added to each sample (5 μL/mg tissue) and homogenized using a pestle.” left out, “All determinations in both (A) and (B) were carried out in triplicate. Error bars correspond to ±S.E.M; and” left out
as §2

Where two headings read alike, the source gives them in different places.

In general, AUC refers to the area under the concentration-time curve, a measure of exposure. By half-life is commonly meant the time needed for the level to fall by half in the phase considered. Turning to `[N-]=[N+]=CC(=O)CC[C@H](N)C(=O)O` [DON, 6-Diazo-5-oxo-L-norleucine], in data set [1] (0.6 mg/kg i.p., 1 h after administration, brains perfused with PBS, ±S.E.M.), the “DON concentration in brain” value came out at 0.22±0.18 nmol/g tissue. Moreover, the Kp at 1 h in data set [1] (male, C57BL/6, mouse, intraperitoneal, 0.6 mg/kg, at 1 h, read-out: brain/plasma ratio) is 0.1; in data set [1] (male, C57BL/6, mouse, ip, 0.6 mg/kg i.p., 1 h, read-out: brain to plasma ratio), ~0.1. In data set [1] (male, C57BL/6, mouse, plasma, ip, 0.6 mg/kg i.p., 1 h after administration, ±S.E.M.), this molecule had a concentration at 1 h of 1.7 ± 0.5 µM. Further, the concentration at 15 min in data set [2] (read-out: DON concentration in plasma, derivatization method (acidified butanol, LC-MS)) is 4.2 µM; in data set [2] (read-out: DON concentration in plasma, direct method (underivatized DON, Hypercarb LC-MS)) it was 3.9 µM. Also, in data set [3] (in vivo, 0.25-6 h, read-out: exposure of DON estimated from the area under the curve (AUC)), the AUC was 8 µM·h. The half-life in data set [3] was 1.2 h.
